Assay results from ChEMBL document CHEMBL3779873, “Rubrolide analogues and their derived lactams as potential anticancer agents” (Medchemcomm, 2016).
Active and inactive are the calls of the source. The calls are words filed in the database; no cut-off is given here.

Columns and labels:
[1] = test system: HL-60; experiment: Induction of apoptosis in human HL60 cells assessed as DNA fragmentation after 24 hrs by annexin V/propidium iodide staining based flow cytometry; type: functional, cell-based
[2] = test system: HL-60; experiment: Induction of apoptosis in human HL60 cells assessed as mitochondrial depolarization after 24 hrs by rhodamine-123 as fluorescent dye based flow cytometry; type: functional, cell-based
[3] = Cytotoxicity against human HL60 cells after 72 hrs by MTT assay; type: functional, HL-60
[4] = Cytotoxicity against human OVCAR8 cells assessed as reduction in cell viability at 25 ug/mL after 72 hrs by MTT assay; type: functional, OVCAR-8
[5] = Cytotoxicity against mouse L929 cells after 72 hrs by MTT assay; type: cell-based; conditions: read-out: RC50
[6] = test system: HL-60; experiment: Induction of cell cycle arrest in human HL60 cells assessed as accumulation at S phase at 5 uM after 24 hrs by annexin V/propidium iodide staining based flow cytometry (reference value: 27.64 +/- 2.15 %); type: functional
[7] = test system: HL-60; experiment: Induction of cell cycle arrest in human HL60 cells assessed as accumulation at S phase at 2.5 uM after 24 hrs by annexin V/propidium iodide staining based flow cytometry (reference value: 27.64 +/- 2.15 %); type: functional
[8] = test system: HL-60; experiment: Induction of cell cycle arrest in human HL60 cells assessed as accumulation at sub-G0/G1 phase at 2.5 uM after 24 hrs by annexin V/propidium iodide staining based flow cytometry (reference value: 6.10 +/- 0.28 %); type: functional
[9] = test system: HL-60; experiment: Induction of apoptosis in human HL60 cells assessed as reduction in cellular and nuclear volumes at 2.5 to 10 uM after 24 hrs by giemsa staining-based light microscopy analysis; type: functional, cell-based
[10] = test system: HL-60; experiment: Induction of apoptosis in human HL60 cells assessed as cytoplasmic budding at 2.5 to 10 uM after 24 hrs by giemsa staining-based light microscopy analysis; type: functional, cell-based
[11] = test system: HL-60; experiment: Induction of apoptosis in human HL60 cells assessed as mitochondrial depolarization at 10 uM after 24 hrs by rhodamine-123 as fluorescent dye based flow cytometry; type: functional
[12] = test system: HL-60; experiment: Induction of apoptosis in human HL60 cells assessed as chromatolysis at 2.5 to 10 uM after 24 hrs by giemsa staining-based light microscopy analysis; type: functional, cell-based
[13] = test system: HL-60; experiment: Induction of cell cycle arrest in human HL60 cells assessed as accumulation at sub-G0/G1 phase at 10 uM after 24 hrs by annexin V/propidium iodide staining based flow cytometry (reference value: 6.10 +/- 0.28 %); type: functional
[14] = test system: HL-60; experiment: Induction of cell cycle arrest in human HL60 cells assessed as accumulation at G2/M phase at 5 uM after 24 hrs by annexin V/propidium iodide staining based flow cytometry (reference value: 19.04 +/- 1.10 %); type: functional
[15] = Cytotoxicity against human OVCAR8 cells after 72 hrs by MTT assay; type: functional, OVCAR-8
[16] = test system: HL-60; experiment: Induction of cell cycle arrest in human HL60 cells assessed as accumulation at G0/G1 phase at 5 uM after 24 hrs by annexin V/propidium iodide staining based flow cytometry (reference value: 45.81 +/- 3.16 %); type: functional
[17] = test system: HL-60; experiment: Induction of cell cycle arrest in human HL60 cells assessed as accumulation at G2/M phase at 2.5 uM after 24 hrs by annexin V/propidium iodide staining based flow cytometry (reference value: 19.04 +/- 1.10 %); type: functional
[18] = test system: HL-60; experiment: Induction of apoptosis in human HL60 cells assessed as chromatin condensation at 2.5 to 10 uM after 24 hrs by giemsa staining-based light microscopy analysis; type: functional, cell-based
[19] = test system: HL-60; experiment: Induction of apoptosis in human HL60 cells assessed as phosphatidylserine externalization at 2.5 uM after 24 hrs by annexin V/propidium iodide staining based flow cytometry; type: functional
[20] = test system: HL-60; experiment: Induction of apoptosis in human HL60 cells assessed as increase in apoptotic cells after 24 hrs by acridine orange/ethidium bromide staining based fluorescence microscopy; type: functional, cell-based
[21] = test system: HL-60; experiment: Induction of apoptosis in human HL60 cells assessed as increase in necrotic cells at 10 uM after 24 hrs by acridine orange/ethidium bromide staining based fluorescence microscopy; type: functional
[22] = test system: HL-60; experiment: Induction of cell cycle arrest in human HL60 cells assessed as accumulation at S phase at 10 uM after 24 hrs by annexin V/propidium iodide staining based flow cytometry (reference value: 27.64 +/- 2.15 %); type: functional
[23] = Cytotoxicity against human SF295 cells after 72 hrs by MTT assay; type: functional, SF-295
[24] = Cytotoxicity against human HCT116 cells after 72 hrs by MTT assay; type: functional, HCT-116
[25] = test system: HL-60; experiment: Induction of apoptosis in human HL60 cells assessed as increase in apoptotic cells at 5 uM after 24 hrs by acridine orange/ethidium bromide staining based fluorescence microscopy; type: functional
[26] = test system: HL-60; experiment: Induction of cell cycle arrest in human HL60 cells assessed as accumulation at sub-G0/G1 phase at 5 uM after 24 hrs by annexin V/propidium iodide staining based flow cytometry (reference value: 6.10 +/- 0.28 %); type: functional
[27] = test system: HL-60; experiment: Induction of apoptosis in human HL60 cells assessed as phosphatidylserine externalization at 10 uM after 24 hrs by annexin V/propidium iodide staining based flow cytometry; type: functional
[28] = Cytotoxicity against human HCT116 cells assessed as reduction in cell viability at 25 ug/mL after 72 hrs by MTT assay; type: functional, HCT-116
[29] = test system: HL-60; experiment: Induction of apoptosis in human HL60 cells assessed as phosphatidylserine externalization at 5 uM after 24 hrs by annexin V/propidium iodide staining based flow cytometry; type: functional
[30] = test system: HL-60; experiment: Induction of apoptosis in human HL60 cells assessed as decrease in viable cells after 24 hrs by acridine orange/ethidium bromide staining based fluorescence microscopy; type: functional, cell-based
[31] = test system: HL-60; experiment: Induction of apoptosis in human HL60 cells assessed as decrease in viable cells at 10 uM after 24 hrs by acridine orange/ethidium bromide staining based fluorescence microscopy; type: functional
[32] = test system: HL-60; experiment: Induction of apoptosis in human HL60 cells assessed as increase in apoptotic cells at 10 uM after 24 hrs by acridine orange/ethidium bromide staining based fluorescence microscopy; type: functional
[33] = test system: HL-60; experiment: Induction of cell cycle arrest in human HL60 cells assessed as accumulation at G2/M phase at 10 uM after 24 hrs by annexin V/propidium iodide staining based flow cytometry (reference value: 19.04 +/- 1.10 %); type: functional
[34] = test system: HL-60; experiment: Induction of cell cycle arrest in human HL60 cells assessed as accumulation at G0/G1 phase at 10 uM after 24 hrs by annexin V/propidium iodide staining based flow cytometry (reference value: 45.81 +/- 3.16 %); type: functional
[35] = test system: HL-60; experiment: Induction of apoptosis in human HL60 cells assessed as increase in necrotic cells after 24 hrs by acridine orange/ethidium bromide staining based fluorescence microscopy; type: functional, cell-based
[36] = test system: HL-60; experiment: Induction of apoptosis in human HL60 cells assessed as intranuclear vacuoles at 2.5 to 10 uM after 24 hrs by giemsa staining-based light microscopy analysis; type: functional, cell-based
[37] = test system: HL-60; experiment: Induction of cell cycle arrest in human HL60 cells assessed as accumulation at G0/G1 phase at 2.5 uM after 24 hrs by annexin V/propidium iodide staining based flow cytometry (reference value: 45.81 +/- 3.16 %); type: functional
[38] = test system: HL-60; experiment: Induction of apoptosis in human HL60 cells assessed as mitochondrial depolarization at 2.5 uM after 24 hrs by rhodamine-123 as fluorescent dye based flow cytometry; type: functional
[39] = test system: HL-60; experiment: Induction of apoptosis in human HL60 cells assessed as decrease in viable cells at 5 uM after 24 hrs by acridine orange/ethidium bromide staining based fluorescence microscopy; type: functional
[40] = Cytotoxicity against human SF295 cells assessed as reduction in cell viability at 25 ug/mL after 72 hrs by MTT assay; type: functional, SF-295
[41] = test system: HL-60; experiment: Induction of apoptosis in human HL60 cells assessed as mitochondrial depolarization at 5 uM after 24 hrs by rhodamine-123 as fluorescent dye based flow cytometry; type: functional
[42] = test system: HL-60; experiment: Induction of apoptosis in human HL60 cells assessed as decrease in viable cells at 2.5 uM after 24 hrs by acridine orange/ethidium bromide staining based fluorescence microscopy; type: functional
[43] = test system: HL-60; experiment: Induction of apoptosis in human HL60 cells assessed as increase in apoptotic cells at 2.5 uM after 24 hrs by acridine orange/ethidium bromide staining based fluorescence microscopy; type: functional
[44] = test system: HL-60; experiment: Induction of cell cycle arrest in human HL60 cells assessed as accumulation at G0/G1 phase at 0.5 uM after 24 hrs by annexin V/propidium iodide staining based flow cytometry (reference value: 45.81 +/- 3.16%); type: functional
[45] = test system: HL-60; experiment: Induction of cell cycle arrest in human HL60 cells assessed as accumulation at S phase at 0.5 uM after 24 hrs by annexin V/propidium iodide staining based flow cytometry (reference value: 27.64 +/- 2.15%); type: functional
[46] = test system: HL-60; experiment: Induction of apoptosis in human HL60 cells assessed as chromatin condensation at 0.5 uM after 24 hrs by giemsa staining-based light microscopy analysis; type: functional, cell-based
[47] = test system: HL-60; experiment: Induction of cell cycle arrest in human HL60 cells assessed as accumulation at G2/M phase at 0.5 uM after 24 hrs by annexin V/propidium iodide staining based flow cytometry (reference value: 19.04 +/- 1.1%); type: functional
[48] = test system: HL-60; experiment: Induction of apoptosis in human HL60 cells assessed as nuclear fragmentation at 0.5 uM after 24 hrs by giemsa staining-based light microscopy analysis; type: functional, cell-based
[49] = test system: HL-60; experiment: Induction of cell cycle arrest in human HL60 cells assessed as accumulation at sub-G0/G1 phase at 0.5 uM after 24 hrs by annexin V/propidium iodide staining based flow cytometry (reference value: 6.10 +/- 0.28 %); type: functional
[50] = test system: HL-60; experiment: Induction of apoptosis in human HL60 cells assessed as cell shrinkage at 0.5 uM after 24 hrs by giemsa staining-based light microscopy analysis; type: functional

## O=C1O/C(=C\c2ccc(Br)cc2)C(Cl)=C1Cl
[1]
  Activity: Dose-dependent effect
[2]
  Activity: Dose-dependent effect
[3]
  RC50: 3 µM
[4]
  Activity: 98.99%
[5]
  CC50 at 72 h: > 50 µM
[6]
  Activity: 14.77%
[7]
  Activity: 24.16%
[8]
  Activity: 17.5%
[9]
  Activity: Active
[10]
  Activity: Active
[11]
  Activity: 56.2%
[12]
  Activity: Active
[13]
  Activity: 51.26%
[14]
  Activity: 4.68%
[15]
  RC50: 13.68 µM
[16]
  Activity: 43.19%
[17]
  Activity: 7.39%
[18]
  Activity: Active
[19]
  Activity: 9.5%
[20]
  Activity: Dose-dependent effect
[21]
  Activity: 12.7%
[22]
  Activity: 7.26%
[23]
  RC50: 14.68 µM
[24]
  RC50: 8.18 µM
[25]
  Activity: 24.1%
[26]
  Activity: 29.63%
[27]
  Activity: 29%
[28]
  Activity: 98.27%
[29]
  Activity: 19%
[30]
  Activity: Dose-dependent effect
[31]
  Activity: 47.3%
[32]
  Activity: 46.8%
[33]
  Activity: 2.71%
[34]
  Activity: 33.59%
[35]
  Activity: Dose-dependent effect
[36]
  Activity: Active
[37]
  Activity: 45.29%
[38]
  Activity: 21.7%
[39]
  Activity: 17.7%
[40]
  Activity: 94.12%
[41]
  Activity: 37.1%

## COc1ccc(Br)cc1C1=C(Br)C(=O)O/C1=C\c1ccc(C(F)(F)F)cc1
[1]
  Activity: Dose-dependent effect
[2]
  Activity: Dose-dependent effect
[3]
  RC50: 3.58 µM
[4]
  Activity: 99.5%
[5]
  CC50 at 72 h: > 50 µM
[6]
  Activity: 12.93%
[7]
  Activity: 13.75%
[8]
  Activity: 15.27%
[9]
  Activity: Active
[10]
  Activity: Active
[11]
  Activity: 68%
[12]
  Activity: Active
[13]
  Activity: 48.52%
[14]
  Activity: 2.86%
[15]
  RC50: 2.74 µM
[42]
  Activity: 67.1%
[16]
  Activity: 72.43%
[17]
  Activity: 5.92%
[18]
  Activity: Active
[43]
  Activity: 31.3%
[19]
  Activity: 16.2%
[20]
  Activity: Dose-dependent effect
[21]
  Activity: 16.7%
[22]
  Activity: 11.81%
[23]
  RC50: 4.9 µM
[24]
  RC50: 2.98 µM
[26]
  Activity: 23.17%
[27]
  Activity: 48.1%
[28]
  Activity: 98.22%
[29]
  Activity: 33.3%
[30]
  Activity: Dose-dependent effect
[31]
  Activity: 11.8%
[32]
  Activity: 71.5%
[33]
  Activity: 9.12%
[34]
  Activity: 31.64%
[35]
  Activity: Dose-dependent effect
[36]
  Activity: Active
[37]
  Activity: 72.81%
[38]
  Activity: 35.1%
[39]
  Activity: 38.8%
[40]
  Activity: 91.06%
[41]
  Activity: 47%

## COc1cccc2c1C(=O)c1c(O)c3c(c(O)c1C2=O)C[C@@](O)(C(=O)CO)C[C@@H]3O[C@H]1C[C@H](N)[C@H](O)[C@H](C)O1 [DOXORUBICIN]
[3]
  RC50: 0.02 µM
[44]
  Activity: 33.78%
[15]
  RC50: 0.62 µM
[45]
  Activity: 15.5%
[46]
  Activity: Active
[23]
  RC50: 0.44 µM
[24]
  RC50: 0.04 µM
[47]
  Activity: 2.59%
[48]
  Activity: Active
[49]
  Activity: 46.25%
[50]
  Activity: Active
